Measured values from ChEMBL document CHEMBL1909046, “DrugMatrix in vitro pharmacology data”.

Columns and labels:
[1] = target: T1, Muscarinic acetylcholine receptor M2 (Homo sapiens, UniProt P08172); assay type: cell membranes, CHO-K1, Membrane
T1 sequence (P08172 whole entry): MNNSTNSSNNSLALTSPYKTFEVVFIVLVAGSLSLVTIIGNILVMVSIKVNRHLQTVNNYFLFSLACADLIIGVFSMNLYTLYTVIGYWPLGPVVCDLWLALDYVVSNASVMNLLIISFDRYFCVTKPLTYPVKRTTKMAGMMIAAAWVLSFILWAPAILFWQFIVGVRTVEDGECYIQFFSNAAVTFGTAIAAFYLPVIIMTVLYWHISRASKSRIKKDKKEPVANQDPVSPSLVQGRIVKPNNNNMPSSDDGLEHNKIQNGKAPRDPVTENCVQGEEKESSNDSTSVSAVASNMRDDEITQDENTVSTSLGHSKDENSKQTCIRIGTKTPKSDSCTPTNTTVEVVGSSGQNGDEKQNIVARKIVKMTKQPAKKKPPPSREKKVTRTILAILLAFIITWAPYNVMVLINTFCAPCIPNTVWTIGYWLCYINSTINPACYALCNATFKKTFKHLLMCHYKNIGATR

[2] = target: Cytochrome P450 2C9 (Homo sapiens, UniProt P11712)
[3] = target: Cytochrome P450 2C19 (Homo sapiens, UniProt P33261)
[4] = target: T2, Androgen receptor (Rattus norvegicus, UniProt P15207)
T2 sequence (P15207 whole entry): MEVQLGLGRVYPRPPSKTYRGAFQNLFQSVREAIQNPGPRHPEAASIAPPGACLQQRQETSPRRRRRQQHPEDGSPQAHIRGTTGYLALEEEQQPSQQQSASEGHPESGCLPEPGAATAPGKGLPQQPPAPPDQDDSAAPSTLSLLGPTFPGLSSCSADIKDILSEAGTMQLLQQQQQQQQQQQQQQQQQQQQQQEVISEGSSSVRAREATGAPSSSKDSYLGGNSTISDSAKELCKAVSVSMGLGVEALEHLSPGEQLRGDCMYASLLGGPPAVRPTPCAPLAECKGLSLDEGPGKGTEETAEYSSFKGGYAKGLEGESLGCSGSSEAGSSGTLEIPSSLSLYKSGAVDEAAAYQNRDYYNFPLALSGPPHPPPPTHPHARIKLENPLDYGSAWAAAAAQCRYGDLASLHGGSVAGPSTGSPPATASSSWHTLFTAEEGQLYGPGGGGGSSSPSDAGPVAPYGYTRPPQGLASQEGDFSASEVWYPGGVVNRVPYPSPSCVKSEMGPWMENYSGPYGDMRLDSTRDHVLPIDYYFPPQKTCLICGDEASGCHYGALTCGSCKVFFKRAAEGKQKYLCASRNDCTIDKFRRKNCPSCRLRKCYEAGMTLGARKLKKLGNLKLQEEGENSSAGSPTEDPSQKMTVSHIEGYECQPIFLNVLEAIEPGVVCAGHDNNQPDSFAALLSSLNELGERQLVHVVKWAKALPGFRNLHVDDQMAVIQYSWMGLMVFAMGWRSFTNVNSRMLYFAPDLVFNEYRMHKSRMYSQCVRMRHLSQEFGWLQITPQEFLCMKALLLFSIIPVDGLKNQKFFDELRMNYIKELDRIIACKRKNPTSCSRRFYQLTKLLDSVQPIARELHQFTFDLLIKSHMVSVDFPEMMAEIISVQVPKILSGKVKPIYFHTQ

[5] = target: T2, Androgen receptor; remark: listed apart in the source
[6] = target: Cytochrome P450 2D6 (Homo sapiens, UniProt P10635)
[7] = target: Cytochrome P450 2E1 (Homo sapiens, UniProt P05181)
[8] = target: Cytochrome P450 3A4 (Homo sapiens, UniProt P08684)
[9] = target: T3, Glucocorticoid receptor (Homo sapiens, UniProt P04150); assay: biochemical
T3 sequence (P04150 whole entry): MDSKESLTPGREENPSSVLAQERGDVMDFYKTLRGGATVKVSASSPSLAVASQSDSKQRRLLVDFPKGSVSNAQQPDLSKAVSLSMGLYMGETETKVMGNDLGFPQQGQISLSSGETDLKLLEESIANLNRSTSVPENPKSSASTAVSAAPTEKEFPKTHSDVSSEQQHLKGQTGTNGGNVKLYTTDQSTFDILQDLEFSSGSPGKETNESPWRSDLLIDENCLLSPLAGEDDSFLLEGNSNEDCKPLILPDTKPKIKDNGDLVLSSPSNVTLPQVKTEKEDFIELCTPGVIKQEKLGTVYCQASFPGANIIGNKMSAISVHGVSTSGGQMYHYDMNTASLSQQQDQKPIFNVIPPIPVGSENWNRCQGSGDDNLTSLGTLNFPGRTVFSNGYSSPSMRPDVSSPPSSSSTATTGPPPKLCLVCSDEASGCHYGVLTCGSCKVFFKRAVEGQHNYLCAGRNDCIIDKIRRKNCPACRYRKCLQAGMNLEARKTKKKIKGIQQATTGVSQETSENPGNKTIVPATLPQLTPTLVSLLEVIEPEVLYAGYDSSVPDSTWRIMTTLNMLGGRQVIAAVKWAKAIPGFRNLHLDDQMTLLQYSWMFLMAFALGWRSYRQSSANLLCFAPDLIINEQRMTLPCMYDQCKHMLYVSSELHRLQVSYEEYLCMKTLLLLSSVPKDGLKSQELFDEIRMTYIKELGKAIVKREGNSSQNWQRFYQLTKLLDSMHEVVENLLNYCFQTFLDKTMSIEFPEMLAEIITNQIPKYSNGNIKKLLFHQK
Also: in other assays of this panel Not Active means under 50% inhibition at 10 µM.

Chain of Cytochrome P450 2D6 (P10635 whole entry): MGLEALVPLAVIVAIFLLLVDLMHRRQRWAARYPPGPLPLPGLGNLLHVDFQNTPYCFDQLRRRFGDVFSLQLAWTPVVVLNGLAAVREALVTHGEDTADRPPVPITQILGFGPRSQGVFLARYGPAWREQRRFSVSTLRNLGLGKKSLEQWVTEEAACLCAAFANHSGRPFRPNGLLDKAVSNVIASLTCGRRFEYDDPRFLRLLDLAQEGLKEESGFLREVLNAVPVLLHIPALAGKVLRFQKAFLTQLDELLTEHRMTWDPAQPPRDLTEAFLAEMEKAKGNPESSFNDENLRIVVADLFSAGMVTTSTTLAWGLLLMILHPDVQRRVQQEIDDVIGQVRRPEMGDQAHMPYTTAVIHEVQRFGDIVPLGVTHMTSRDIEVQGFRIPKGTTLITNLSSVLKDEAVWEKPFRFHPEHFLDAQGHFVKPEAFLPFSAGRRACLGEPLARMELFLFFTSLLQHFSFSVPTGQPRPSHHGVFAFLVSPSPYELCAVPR
Chain of Cytochrome P450 2C9 (P11712 whole entry): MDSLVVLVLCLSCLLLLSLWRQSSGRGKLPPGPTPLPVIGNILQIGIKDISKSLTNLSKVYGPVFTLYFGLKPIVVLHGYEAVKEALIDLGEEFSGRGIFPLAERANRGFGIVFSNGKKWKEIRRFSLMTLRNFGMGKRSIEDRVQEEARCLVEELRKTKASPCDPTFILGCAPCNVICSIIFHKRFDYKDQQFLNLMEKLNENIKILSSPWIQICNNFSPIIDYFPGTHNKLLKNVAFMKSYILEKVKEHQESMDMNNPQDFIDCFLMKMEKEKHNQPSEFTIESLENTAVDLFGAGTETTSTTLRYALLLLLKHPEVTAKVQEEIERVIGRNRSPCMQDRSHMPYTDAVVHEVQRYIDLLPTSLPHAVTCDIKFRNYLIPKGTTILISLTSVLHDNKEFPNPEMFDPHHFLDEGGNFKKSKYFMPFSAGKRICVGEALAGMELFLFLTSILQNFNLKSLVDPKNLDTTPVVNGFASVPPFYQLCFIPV
Chain of Cytochrome P450 2C19 (P33261 whole entry): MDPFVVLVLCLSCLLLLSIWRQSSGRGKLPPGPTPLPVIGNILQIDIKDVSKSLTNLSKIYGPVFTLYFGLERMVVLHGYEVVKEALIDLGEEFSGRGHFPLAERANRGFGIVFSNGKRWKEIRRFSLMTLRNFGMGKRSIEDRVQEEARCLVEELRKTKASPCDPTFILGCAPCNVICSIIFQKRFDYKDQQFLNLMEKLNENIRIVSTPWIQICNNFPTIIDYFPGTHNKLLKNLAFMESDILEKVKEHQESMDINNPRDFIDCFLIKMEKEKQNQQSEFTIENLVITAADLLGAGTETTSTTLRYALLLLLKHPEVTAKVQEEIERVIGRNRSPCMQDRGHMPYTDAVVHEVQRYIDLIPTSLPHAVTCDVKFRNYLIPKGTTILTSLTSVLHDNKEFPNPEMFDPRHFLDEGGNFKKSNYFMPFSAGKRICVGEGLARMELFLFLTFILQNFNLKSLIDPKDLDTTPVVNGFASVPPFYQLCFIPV
Chain of Cytochrome P450 2E1 (P05181 whole entry): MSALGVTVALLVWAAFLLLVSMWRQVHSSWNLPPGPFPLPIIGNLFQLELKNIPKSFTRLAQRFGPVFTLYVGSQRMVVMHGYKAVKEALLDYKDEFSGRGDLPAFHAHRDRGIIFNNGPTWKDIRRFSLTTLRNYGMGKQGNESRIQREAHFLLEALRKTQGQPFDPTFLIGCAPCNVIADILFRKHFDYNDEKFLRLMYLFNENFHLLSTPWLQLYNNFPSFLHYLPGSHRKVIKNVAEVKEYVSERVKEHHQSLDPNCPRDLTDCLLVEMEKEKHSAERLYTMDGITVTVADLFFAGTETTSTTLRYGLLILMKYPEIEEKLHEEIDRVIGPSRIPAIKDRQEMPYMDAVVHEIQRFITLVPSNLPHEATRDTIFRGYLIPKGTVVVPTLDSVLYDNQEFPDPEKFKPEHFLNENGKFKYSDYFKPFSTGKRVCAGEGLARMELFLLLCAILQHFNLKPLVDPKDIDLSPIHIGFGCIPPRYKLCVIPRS
Chain of Cytochrome P450 3A4 (P08684 whole entry): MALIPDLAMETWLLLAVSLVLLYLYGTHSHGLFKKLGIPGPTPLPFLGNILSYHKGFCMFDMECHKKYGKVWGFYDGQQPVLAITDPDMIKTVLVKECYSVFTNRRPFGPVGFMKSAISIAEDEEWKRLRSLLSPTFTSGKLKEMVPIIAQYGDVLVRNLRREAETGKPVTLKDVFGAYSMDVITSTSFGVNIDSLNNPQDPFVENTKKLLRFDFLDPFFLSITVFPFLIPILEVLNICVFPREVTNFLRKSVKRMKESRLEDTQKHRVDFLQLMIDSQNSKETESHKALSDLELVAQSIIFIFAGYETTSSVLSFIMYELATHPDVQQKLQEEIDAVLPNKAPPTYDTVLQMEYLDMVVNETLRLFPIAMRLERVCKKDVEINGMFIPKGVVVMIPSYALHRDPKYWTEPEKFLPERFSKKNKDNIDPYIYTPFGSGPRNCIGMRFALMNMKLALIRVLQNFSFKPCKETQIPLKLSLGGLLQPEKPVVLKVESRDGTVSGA

`O=C(c1ccccc1F)N1CCC(Cc2ccccc2)CC1` was tested, and the IC50 ([1]; cho-k1) was “Not Active”, the IC50 [2] was 2000 nM and the IC50 [3] was 500 nM. For the same molecule, the IC50 [4] was “Not Active”.
For `Cc1c(O)cccc1C(=O)N[C@@H](CSc1ccccc1)[C@H](O)CN1C[C@H]2CCCC[C@H]2C[C@H]1C(=O)NC(C)(C)C`, the IC50 ([1]; cho-k1) was “Not Active”, the IC50 [5] was 36400 nM and the Ki [5] was 24300 nM.
`CC(O)COC[C@H]1O[C@@H]2O[C@H]3[C@H](O)[C@@H](O)[C@@H](O[C@H]4[C@H](O)[C@@H](O)[C@@H](O[C@H]5[C@H](O)[C@@H](O)[C@@H](O[C@H]6[C@H](O)[C@@H](O)[C@@H](O[C@H]7[C@H](O)[C@@H](O)[C@@H](O[C@H]8[C@H](O)[C@@H](O)[C@@H](O[C@H]1[C@H](O)[C@H]2O)O[C@@H]8COCC(C)O)O[C@@H]7COCC(C)O)O[C@@H]6COCC(C)O)O[C@@H]5COCC(C)O)O[C@@H]4COCC(C)O)O[C@@H]3COCC(C)O` (stereo partly drawn) [2-HYDROXYPROPYL-BETA-CYCLODEXTRIN] was tested, and the IC50 ([1]; cho-k1) was “Not Active”, the IC50 [5] was 2160 nM and the Ki [5] was 1440 nM.
`CC[C@H]1[C@@H]2C[C@H]3[C@@H]4N(C)c5ccccc5[C@]45C[C@@H]([C@@H]2[C@H]5O)N3[C@@H]1O` [AJMALINE] was tested, and the IC50 ([1]; cho-k1) was “Not Active” and the IC50 [6] was 1000 nM.
`ClC(Cl)(Cl)Cl` [CARBON TETRACHLORIDE] was tested, and the IC50 ([1]; cho-k1) was “Not Active” and the IC50 [7] was 11000 nM.
`CN1CCN(C(c2ccccc2)c2ccccc2)CC1` [CYCLIZINE] showed an IC50 ([1]; read-out: IC50) of 1160 nM, a Ki ([1]; read-out: Ki) of 412 nM and an IC50 [6] of 6220 nM. For the same molecule, the IC50 [4] was “Not Active”.
For `CC(C)C[C@H]1C(=O)N2CCC[C@H]2[C@]2(O)O[C@](NC(=O)[C@@H]3C=C4c5cccc6[nH]cc(c56)C[C@H]4N(C)C3)(C(C)C)C(=O)N12` [ERGOCRYPTINE], the IC50 ([1]; cho-k1) was “Not Active”, the IC50 [8] was 600 nM and the IC50 [2] was 6000 nM. The IC50 [4] was “Not Active”.
`C[C@]12CC[C@@H]3c4ccc(O)cc4CC[C@H]3[C@@H]1C[C@@H](O)[C@@H]2O` [ESTRIOL] was tested, and the IC50 ([1]; cho-k1) was “Not Active”, the IC50 [9] was 39300 nM and the Ki [9] was 17900 nM.
With `C#C[C@]1(O)CC[C@H]2[C@@H]3CCC4=CC(=O)CC[C@]4(C)[C@H]3CC[C@@]21C` [ETHISTERONE] the IC50 ([1]; cho-k1) was “Not Active”, the IC50 [9] was 209 nM and the Ki [9] was 95 nM.
In the case of `CC(=O)OCC(=O)[C@@]12OC(C)(C)O[C@@H]1C[C@H]1[C@@H]3C[C@H](F)C4=CC(=O)C=C[C@]4(C)[C@@]3(F)[C@@H](O)C[C@@]12C` [FLUOCINONIDE], the IC50 ([1]; cho-k1) is reported as “Not Active”, the IC50 [9] is reported as 5.26 nM and the Ki [9] is reported as 2.39 nM.
In the case of `COc1ccc2c(c1OC)C(=O)O[C@@H]2[C@H]1c2c(cc3c(c2OC)OCO3)CCN1C` [NOSCAPINE], the IC50 ([1]; cho-k1) is reported as “Not Active”, the IC50 [2] is reported as 8180 nM and the IC50 [3] is reported as 400 nM.
With `NNCCc1ccccc1` [PHENELZINE] the IC50 ([1]; cho-k1) was “Not Active”, the IC50 [2] was 4000 nM and the IC50 [3] was 800 nM. The IC50 [6] was 1000 nM.
For `C[C@]12C=CC(=O)C=C1CC[C@H]1[C@@H]3C[C@@H](O)[C@](O)(C(=O)CO)[C@@]3(C)C[C@H](O)[C@@]12F` [TRIAMCINOLONE], the IC50 ([1]; cho-k1) was “Not Active”, the IC50 [9] was 58 nM and the Ki [9] was 26 nM.
